Measured values published in US6037361A, “Fluorinated butyric acids and their derivatives as inhibitors of matrix metalloproteinases” (Warner-Lambert Company, priority 1998, dated 2000).

How the values were obtained:
[1] = test system: bovine nasal and pig articular cartilage; details: bovine nasal and pig articular cartilage models for arthritis; cited from earlier work
[2] = target: GCD (recombinant gelatinase A catalytic domain); assay: IC50 versus GCD with thiopeptolide substrate Ac-Pro-Leu-Gly-thioester-Leu-Leu-Gly-OEt; type: biochemical
Experimental: (§1) Experiments were carried out with the catalytic domains of the proteinases. […] IC50 values were determined using a thiopeptolide substrate, Ac-Pro-Leu-Gly-thioester-Leu-Leu-Gly-OEt (Ye Q. -Z., Johnson L. L., Hupe D. J., and Baragi V., "Purification and Characterization of the Human Stromelysin Catalytic Domain Expressed in Escherichia coli", Biochemistry, 1992;31:11231-11235).

[3] = target: T1, SCD (stromelysin-1 catalytic domain) (Homo sapiens, UniProt P08254); assay: IC50 versus SCD with thiopeptolide substrate Ac-Pro-Leu-Gly-thioester-Leu-Leu-Gly-OEt; type: biochemical
T1 construct: SCD (stromelysin-1 catalytic domain); made in house; host or cells: Escherichia coli
Experimental: as §1

[4] = test system: human ovarian carcinoma xenografts; details: mice bearing human ovarian carcinoma xenografts; cited from earlier work

T1 sequence (P08254 100-272 limits assumed): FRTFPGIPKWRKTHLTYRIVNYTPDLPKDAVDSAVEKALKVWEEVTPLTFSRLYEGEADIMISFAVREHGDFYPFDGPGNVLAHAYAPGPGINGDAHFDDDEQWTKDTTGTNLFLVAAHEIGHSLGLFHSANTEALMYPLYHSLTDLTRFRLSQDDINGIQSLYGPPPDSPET

IC50 [2] [µM] | IC50 [3] [µM] | Compound | formation of collagen fragments and proteoglycan fragments [1] | tumor burden and survival [4]
 |  | TIMP-1: natural endogenous inhibitors of MMPs (TIMPs) | prevented the formation of collagen fragments, but not proteoglycan fragments | 
1.95 | 24 | O=C(O)CC(F)(F)C(=O)c1ccc2oc3ccccc3c2c1 [Example 1, 4-Dibenzofuran-2-yl-3,3-difluoro-4-oxo-butyric acid] |  | 
93.6 | > 100 | O=C(CC(F)(F)C(=O)O)c1ccc2oc3ccccc3c2c1 [Example 2, 4-Dibenzofuran-2-yl-2,2-difluoro-4-oxo-butric acid] |  | 
 |  | CNC(=O)[C@H](Cc1ccccc1)NC(=O)[C@H](CC(C)C)[C@H](CSc1cccs1)C(=O)NO [BB-94] |  | decreased the tumor burden and prolonged the survival
